Measured values published in patent publication US10500222B2, “Compositions and methods relating to treatment of infection” (Wayne State University, priority 2015, dated 2019).
“Also recorded” adds a separate entry of the source.

Key:
Assay type in all cases: in vivo, C57BL/6 (B6) mice
[1] = test system: P. aeruginosa KEI 1025 infected cornea; experiment: Ocular response to bacterial infection (clinical score, slit lamp), KEI 1025 keratitis; settings: for opacity, slit lamp photographs / clinical scores: vs PBS
Description: (§1) P. aeruginosa strains, KEI 1025, a non-cytotoxic clinical isolate strain expressing exoT and exoS, and not expressing exoU, described in Estrellas P S, Jr., et al., Curr Eye Res. 2000; 20:157-165 (obtained from Kresge Eye Institute, Detroit, Mich.), and a cytotoxic strain, 19660, expressing exoU, described in Finck-Barbancon V, et al., Mol Microbiol. 1997; 25:547-557; and Fleiszig S M, et al., Infect Immun. 1997; 65:579-586 (obtained from American Type Culture Collection, ATCC, Manassas, Va.), were grown in peptone tryptic soy broth (PTSB) medium in a rotary shaker water bath at 37° C. and 150 rpm for 18 h to an optical density (measured at 540 nm) between 1.3-1.8. Bacterial cultures were pelleted by centrifugation at 5,500 g for 10 min. Pellets were washed once with sterile saline, re-centrifuged, re-suspended and diluted in sterile saline. Anesthetized (using anhydrous ethyl ether) mice were placed beneath a stereoscopic microscope at 40× magnification. The left cornea was scarified with three 1-mm incisions using a sterile 25^5/8 gauge needle. The wounded corneal surface was topically treated with 5 μl containing 1×10^7 CFU/μl (KEI 1025) or 1×10^6 CFU/μl (ATCC strain 19660) of the P. aeruginosa suspension.
(§2) An established corneal disease grading scale, described in detail in Hazlett L D, et al., Invest Ophthalmol Vis Sci. 1987; 28:1978-1985, was used to assign a clinical score value to each infected eye at 1, 3 and 5 days post infection (p.i.). Clinical scores were designated as: 0=clear or slight opacity, partially or fully covering the pupil; +1=slight opacity, fully covering the anterior segment; +2=dense opacity, partially or fully covering the pupil; +3=dense opacity, covering the entire anterior segment; and +4=corneal perforation or phthisis. Clinical scores were used to statistically compare disease severity and were accompanied by photographs using a slit lamp (5 days p.i.) to confirm and illustrate the response.
(§3) The left eyes of B6 mice (n=5/group/time) were injected with 5 μl of 2 μg/μl glycyrrhizin (GLY) (Sigma-Aldrich, St. Louis, Mo.) or PBS (control) subconjunctivally, one day before infection. Similar treatment was done using carbenoxolone (CBX) (Sigma-Aldrich, St. Louis, Mo.). All mice were injected intraperitoneally (IP) at 1 and 3 days p.i. with 100 μl of GLY (2 μg/μl) or CBX (1 μg/μl). PBS served as control for all these experiments. In a separate similar experiment mice were treated one day before infection with GLY subconjunctivally and injected intraperitoneally (i.p.) with GLY plus recombinant (r) HMGB1 (1 μg/100 μl) or GLY plus PBS. IP injections were similarly given at 1 and 3 days p.i. In an additional experiment, KEI 1025 infected B6 mice were treated with 5 μl of 2 μg/μl GLY subconjunctivally at 6 hours p.i. and injected intraperitoneally at 1 and 3 days p.i. with 100 μl of GLY (2 μg/μl).

[2] = test system: P. aeruginosa KEI 1025; experiment: Quantification of viable bacteria (plate count), KEI 1025 infection; settings: vs PBS; for bacterial load (plate count): post treatment: subconj. 6 hours p.i. + IP 1 and 3 days p.i.; for bacterial load in the corneas (plate count): pretreatment subconj. + IP
Procedure: as §3
Mice were sacrificed at 3 and 5 days p.i. and KEI 1025 or ATCC strain 19660 infected corneas from GLY, CBX or PBS (or GLY+/−rHMGB1) treated B6 mice were harvested (n=5/group/time). Each cornea was homogenized in 1 ml of sterile saline (0.85% NaCl, pH 7.4) containing 0.25% BSA. A 100 μl of the corneal homogenate was serially diluted (1:10) in sterile saline containing 0.25% BSA. Selected dilutions were plated in triplicate on selective culture medium (Difco™ Pseudomonas Isolation Agar, BD Biosciences, Inc., Franklin Lakes, N.J.). Plates were incubated overnight at 37° C. and viable bacteria manually counted. Results are reported as log10 CFU/cornea±SEM.

[3] = test system: P. aeruginosa ATCC strain 19660 infected cornea; experiment: Ocular response to bacterial infection (clinical score, slit lamp), strain 19660 keratitis; settings: pretreatment subconj. + IP, vs PBS
Description: as §1, §2
as §3, with “In an additional experiment, KEI 1025 infected B6 mice were treated with 5 μl of 2 μg/μl GLY subconjunctivally at 6 hours p.i. and injected intraperitoneally at 1 and 3 days p.i. with 100 μl of GLY (2 μg/μl).” left out

[4] = subconj. 1 day before infection + IP 1 and 3 days p.i., 5 days p.i.

CC1(C)[C@@H](O[C@H]2O[C@H](C(=O)O)[C@@H](O)[C@H](O)[C@H]2O[C@@H]2O[C@H](C(=O)O)[C@@H](O)[C@H](O)[C@H]2O)CC[C@]2(C)[C@H]3C(=O)C=C4[C@@H]5C[C@@](C)(C(=O)O)CC[C@]5(C)CC[C@@]4(C)[C@]3(C)CC[C@@H]12 [GLY, glycyrrhizin]
opacity, slit lamp photographs ([1]; post treatment: subconj. 6 hours p.i. + IP 1 and 3 days p.i.): decreased opacity | clinical scores ([1]; post treatment: subconj. 6 hours p.i. + IP 1 and 3 days p.i., 1 day p.i.): seen only at 3 and 5 days p.i. | clinical scores ([1]; post treatment: subconj. 6 hours p.i. + IP 1 and 3 days p.i., 3 days p.i.): Reduced clinical scores | clinical scores ([1]; post treatment: subconj. 6 hours p.i. + IP 1 and 3 days p.i., 5 days p.i.): Reduced clinical scores | infiltrate, slit lamp photographs ([1]; pretreatment, 5 days p.i., GLY compared with CBX treated eyes): less infiltrate | clinical scores ([1]; subconj. 1 day before infection + IP 1 and 3 days p.i., 1 day p.i.): significantly less corneal disease with lower clinical scores; also recorded: reduced significantly | clinical scores ([1]; subconj. 1 day before infection + IP 1 and 3 days p.i., 3 days p.i.): significantly less corneal disease with lower clinical scores; also recorded: reduced significantly | clinical scores [1, 4]: significantly less corneal disease with lower clinical scores; also recorded: reduced significantly | opacity, slit lamp photographs [1, 4]: reduced opacity | bacterial load (plate count) ([2]; 3 days p.i.): reduced significantly | bacterial load (plate count) ([2]; 5 days p.i.): reduced significantly | bacterial load in the corneas (plate count) ([2]; 3 days p.i.): reduced | bacterial load in the corneas (plate count) ([2]; 5 days p.i.): reduced | clinical scores ([3]; 1 day p.i.): not at 1 day p.i. | clinical scores ([3]; 3 days p.i.): reduced clinical scores that were significant | clinical scores ([3]; 5 days p.i.): reduced clinical scores that were significant | disease/opacity, slit lamp photographs ([3]; 5 days p.i.): less disease, reduced opacity
